{
  "source": "ChEMBL document CHEMBL1833927",
  "about": "“Constructing transferrin receptor targeted drug delivery system by using doxorubicin hydrochloride and vanadocene dichloride” (Bioorg Med Chem Lett, 2011)",
  "key": {"[1]": {"molecular_target": "Serotransferrin (Homo sapiens) (UniProt P02787)", "sequence (P02787 whole entry)": "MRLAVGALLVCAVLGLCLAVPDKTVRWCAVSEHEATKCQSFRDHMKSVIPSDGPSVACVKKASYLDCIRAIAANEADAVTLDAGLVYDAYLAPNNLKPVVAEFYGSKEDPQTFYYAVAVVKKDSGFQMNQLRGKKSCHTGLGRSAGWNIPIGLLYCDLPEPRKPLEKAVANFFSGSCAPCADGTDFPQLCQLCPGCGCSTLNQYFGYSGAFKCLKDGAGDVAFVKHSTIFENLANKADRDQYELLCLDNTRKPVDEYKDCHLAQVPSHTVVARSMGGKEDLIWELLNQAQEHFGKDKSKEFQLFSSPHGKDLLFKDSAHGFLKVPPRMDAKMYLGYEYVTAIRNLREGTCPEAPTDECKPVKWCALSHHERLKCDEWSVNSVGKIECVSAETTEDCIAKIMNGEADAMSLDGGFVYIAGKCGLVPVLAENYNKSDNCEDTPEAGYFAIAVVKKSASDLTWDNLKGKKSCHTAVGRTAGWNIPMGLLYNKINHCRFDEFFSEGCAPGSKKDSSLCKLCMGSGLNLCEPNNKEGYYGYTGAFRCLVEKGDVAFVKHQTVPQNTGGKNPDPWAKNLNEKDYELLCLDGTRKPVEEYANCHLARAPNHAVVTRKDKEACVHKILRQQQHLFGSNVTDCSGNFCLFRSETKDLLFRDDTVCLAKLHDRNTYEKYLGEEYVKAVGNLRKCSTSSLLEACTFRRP", "test": "Binding affinity to human serum transferrin after 12 hrs at pH 7.4 by spectrofluorometer method"}, "[2]": {"molecular_target": "Serotransferrin (Homo sapiens) (UniProt P02787)", "test": "Binding affinity to human apo transferrin after 12 hrs at pH 7.4 by spectrofluorometer method"}, "A549 [3]": {"test_system": "A549", "test": "Antiproliferative activity against human A549 cells by MTT assay", "assay_type": "functional, cell-based"}, "[4]": {"molecular_target": "Serotransferrin (Homo sapiens) (UniProt P02787)", "test": "Binding affinity to human serum transferrin after 12 hrs at pH 4.8 by spectrofluorometer method"}, "[5]": {"molecular_target": "Serotransferrin (Homo sapiens) (UniProt P02787)", "test": "Binding affinity to human apo transferrin after 12 hrs at pH 4.8 by spectrofluorometer method"}, "A549 [6]": {"test_system": "A549", "test": "Antiproliferative activity against human A549 cells by MTT assay in presence of human serum transferrin/apo transferrin", "assay_type": "functional, cell-based"}},
  "data": [
    {"smiles": "COc1cccc2c1C(=O)c1c(O)c3c(c(O)c1C2=O)C[C@@](O)(C(=O)CO)C[C@@H]3O[C@H]1C[C@H](N)[C@H](O)[C@H](C)O1", "values": [
      {"measurement": "Ka", "setting": "[1]", "result": 32600, "unit": "M⁻¹"},
      {"measurement": "Ka", "setting": "[2]", "result": 74500, "unit": "M⁻¹"},
      {"measurement": "Activity", "setting": "A549 [3]", "result": "Dose-dependent effect"},
      {"measurement": "Ka", "setting": "[4]", "result": 41900, "unit": "M⁻¹"},
      {"measurement": "Ka", "setting": "[5]", "result": 271000, "unit": "M⁻¹"},
      {"measurement": "Activity", "setting": "A549 [6]", "result": "Dose-dependent effect"}
    ]}
  ]
}
